Laboratory results published in ChEMBL document CHEMBL4196143, “Total Synthesis and Structure Revision of Palmarumycin B6” (2018).

Test system: Aedes albopictus
Assay: Larvicidal activity against Aedes albopictus assessed as […] larval mortality after 24 hrs
Assay type: functional

Row | SMILES | LC50 [µM]
1 | O=C1CCC2(Oc3cccc4cccc(c34)O2)c2c(Cl)ccc(O)c21 | 227
2 | O=C1CCC2(Oc3cccc4cccc(c34)O2)c2ccc(Cl)c(O)c21 | 32.7
